Holding throughout (assay type): cell-based
One experiment deals with T1, CFTR-S549N (Homo sapiens, UniProt P13569, S549N).
T1 construct: expressed in transfected cells; HEK293 with plasmid vectors inferred from the G551D protocol, to which the assay is called similar
Kind of experiment: YFP-halide influx assay for the CFTR-S549N. An excerpt: (§1) The YFP halide influx assay measured the functionality of the cystic fibrosis Transmembrane Conductance regulator (CFTR) channels. The assay was used to evaluate the capacity of compounds to increase the channel opening of existing mutant CFTR channels in the membrane. It makes use of the observation that the yellow fluorescent protein (YFP) variant YFP H148Q, I152L, F47L has its fluorescence substantially quenched by halide ions like Cl^− and I^− (Galietta, L. J. V., Haggie, P. M., Verkman, A. S., 2001. Green fluorescent protein-based halide indicators with improved chloride and iodide affinities. FEBS Lett. 499, 220-224. doi:10.1016/S0014-5793(01)02561-3).
(§2) For this purpose, HEK293-cells were seeded in 96 well plates. During seeding, the cells were reverse-transfected with plasmid vectors that direct the expression of the CFTR G551D mutant and of the YFP reporter. Cells were incubated at 37° C., 5% CO2 for 24 hours so as to allow for sufficient expression of the CFTR protein.
(§3) The I^−-induced quenching of fluorescence was recorded immediately after injection of I^− for 7 seconds. The capacity of a compound to increase the channel opening was directly correlated with the decrease in fluorescence, and was expressed as (1-(fluorescence after 7 seconds (F)/fluorescence before injection (F0))) and an EC50 was derived from a (1−F/F0) vs compound concentration plot.
(§4) Similar YHA assays were developed for other channel gating defective or channel conductance defective CFTR mutants to determine effect of compound on channel activity. Examples of mutants are G178R, G1349D, S549N, R117H, R334W. This assay is also used for additional class I CFTR mutants, including G542X, W1282X; class II mutants including N1303K, and for class III mutants including S1251N; or wild-type CFTR.

Another experiment concerns the target T2, CFTR-G1349D (Homo sapiens, UniProt P13569, G1349D).
T2 construct: expressed in transfected cells; HEK293 with plasmid vectors inferred from the G551D protocol, to which the assay is called similar
Kind of experiment: YFP-halide influx assay for the CFTR-G1349D.
Excerpt: as §1, §2, §3, §4

The target in the next experiment is T3, CFTR-R117H (Homo sapiens, UniProt P13569, R117H).
T3 construct: expressed in transfected cells; HEK293 with plasmid vectors inferred from the G551D protocol, to which the assay is called similar
T3 sequence (P13569 whole entry R117H): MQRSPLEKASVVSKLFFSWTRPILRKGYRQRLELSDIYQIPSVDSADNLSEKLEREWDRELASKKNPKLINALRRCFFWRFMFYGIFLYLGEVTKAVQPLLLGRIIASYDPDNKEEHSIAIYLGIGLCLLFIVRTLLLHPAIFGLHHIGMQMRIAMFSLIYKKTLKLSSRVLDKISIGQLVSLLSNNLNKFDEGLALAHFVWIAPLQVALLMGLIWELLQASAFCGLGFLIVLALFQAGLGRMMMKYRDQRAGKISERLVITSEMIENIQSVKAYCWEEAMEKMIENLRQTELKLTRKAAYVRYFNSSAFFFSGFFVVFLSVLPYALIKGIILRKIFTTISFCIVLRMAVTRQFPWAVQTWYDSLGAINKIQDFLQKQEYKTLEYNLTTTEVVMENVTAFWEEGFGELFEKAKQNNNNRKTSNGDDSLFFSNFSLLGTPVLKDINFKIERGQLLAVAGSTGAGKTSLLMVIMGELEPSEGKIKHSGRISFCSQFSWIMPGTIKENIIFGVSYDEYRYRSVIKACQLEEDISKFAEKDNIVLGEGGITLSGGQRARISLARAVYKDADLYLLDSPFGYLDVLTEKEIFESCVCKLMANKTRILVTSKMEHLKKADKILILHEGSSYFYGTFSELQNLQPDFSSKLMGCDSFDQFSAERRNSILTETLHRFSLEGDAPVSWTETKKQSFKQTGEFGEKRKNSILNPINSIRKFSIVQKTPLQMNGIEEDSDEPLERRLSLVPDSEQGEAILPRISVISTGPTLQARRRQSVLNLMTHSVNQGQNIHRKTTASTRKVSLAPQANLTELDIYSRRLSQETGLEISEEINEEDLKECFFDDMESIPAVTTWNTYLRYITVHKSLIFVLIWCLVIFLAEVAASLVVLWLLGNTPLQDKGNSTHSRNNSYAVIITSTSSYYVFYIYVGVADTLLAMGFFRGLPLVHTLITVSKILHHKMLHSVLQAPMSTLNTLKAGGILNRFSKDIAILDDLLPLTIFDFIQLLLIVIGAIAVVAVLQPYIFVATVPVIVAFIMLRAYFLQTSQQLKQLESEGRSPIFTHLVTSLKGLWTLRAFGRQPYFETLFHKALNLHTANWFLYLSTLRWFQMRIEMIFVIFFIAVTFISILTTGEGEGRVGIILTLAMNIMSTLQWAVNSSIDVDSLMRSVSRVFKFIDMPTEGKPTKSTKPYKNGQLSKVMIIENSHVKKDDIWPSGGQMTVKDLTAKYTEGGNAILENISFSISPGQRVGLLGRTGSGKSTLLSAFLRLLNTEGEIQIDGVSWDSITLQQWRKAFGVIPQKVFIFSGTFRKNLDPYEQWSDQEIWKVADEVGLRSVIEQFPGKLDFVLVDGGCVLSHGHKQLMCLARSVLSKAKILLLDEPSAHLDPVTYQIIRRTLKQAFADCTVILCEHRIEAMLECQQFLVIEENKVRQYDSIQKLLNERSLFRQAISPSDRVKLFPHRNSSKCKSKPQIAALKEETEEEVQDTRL
The experiment in a line: YFP-halide influx assay for the CFTR-R117H.
Excerpt: as §1, §2, §3, §4

For the next experiment, the target named is T4, CFTR ΔF508 mutant (Homo sapiens, UniProt P13569, DEL508-508).
T4 construct: expressed in transfected cells; host or cells: CFBE41o- cells transduced with adenoviral vectors
T4 sequence (P13569 with tags, fused parts or gaps DEL508-508): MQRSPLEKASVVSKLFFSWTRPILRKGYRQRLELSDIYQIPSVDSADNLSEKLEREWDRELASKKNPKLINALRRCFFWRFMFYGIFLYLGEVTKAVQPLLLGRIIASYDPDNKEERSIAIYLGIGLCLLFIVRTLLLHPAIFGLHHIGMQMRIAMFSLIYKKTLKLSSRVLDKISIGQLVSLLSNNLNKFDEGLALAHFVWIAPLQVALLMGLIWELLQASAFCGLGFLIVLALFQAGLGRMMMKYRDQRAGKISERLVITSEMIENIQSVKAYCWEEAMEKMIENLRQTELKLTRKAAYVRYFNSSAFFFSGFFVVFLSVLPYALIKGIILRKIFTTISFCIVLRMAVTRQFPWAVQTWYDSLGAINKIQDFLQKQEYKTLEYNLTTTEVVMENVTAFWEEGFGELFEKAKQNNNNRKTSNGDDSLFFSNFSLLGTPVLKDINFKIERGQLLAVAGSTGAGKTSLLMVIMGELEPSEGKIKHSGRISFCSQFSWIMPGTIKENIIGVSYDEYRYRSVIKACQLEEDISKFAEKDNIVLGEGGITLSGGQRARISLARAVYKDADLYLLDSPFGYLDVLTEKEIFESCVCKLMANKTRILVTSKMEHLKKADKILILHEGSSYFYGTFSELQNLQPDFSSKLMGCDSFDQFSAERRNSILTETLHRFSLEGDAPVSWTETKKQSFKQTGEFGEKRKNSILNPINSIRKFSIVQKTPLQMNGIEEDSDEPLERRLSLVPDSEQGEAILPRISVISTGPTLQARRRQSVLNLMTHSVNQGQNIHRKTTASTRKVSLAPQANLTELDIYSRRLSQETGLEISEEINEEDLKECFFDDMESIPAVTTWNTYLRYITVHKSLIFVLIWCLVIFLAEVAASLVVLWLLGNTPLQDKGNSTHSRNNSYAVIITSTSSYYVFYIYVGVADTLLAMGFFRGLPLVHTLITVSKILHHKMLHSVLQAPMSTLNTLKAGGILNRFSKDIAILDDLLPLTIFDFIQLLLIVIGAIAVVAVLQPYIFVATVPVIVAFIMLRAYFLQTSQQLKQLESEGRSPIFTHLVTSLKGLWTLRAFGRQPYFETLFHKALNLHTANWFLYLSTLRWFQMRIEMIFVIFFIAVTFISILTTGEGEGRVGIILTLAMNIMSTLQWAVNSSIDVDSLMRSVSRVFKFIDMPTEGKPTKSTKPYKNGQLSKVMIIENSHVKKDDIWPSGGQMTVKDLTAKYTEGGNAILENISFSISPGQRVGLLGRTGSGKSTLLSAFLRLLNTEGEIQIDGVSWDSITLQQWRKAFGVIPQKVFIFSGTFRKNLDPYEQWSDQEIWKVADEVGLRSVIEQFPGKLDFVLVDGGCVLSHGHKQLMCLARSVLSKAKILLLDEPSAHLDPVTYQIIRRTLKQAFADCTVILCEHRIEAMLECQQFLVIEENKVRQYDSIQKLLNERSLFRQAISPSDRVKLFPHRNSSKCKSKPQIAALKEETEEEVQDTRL
Kind of experiment: YFP-halide influx assay for the CFTR-ΔF508 mutation. The conditions noted are these: CFBE41o- cells expressing CFTR ΔF508 and YFP reporter, forskolin 10.67 μM; for EC50: (1-F/F0) vs concentration. In a few lines:
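CFBE41o- cells were adenovirally transduced with CFTR ΔF508 and YFP H148Q/I152L/F47L, then corrected 24 h at 27 °C or with a CFTR modulator 24 h at 37 °C. Iodide-induced quench was recorded over 2 min. EC50 was derived from 1-F/F0 (36 s vs pre-injection) plotted against compound concentration.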

Another experiment addresses T5, CFTR G551D mutant (Homo sapiens, UniProt P13569, G551D).
T5 construct: expressed in transfected cells; host or cells: HEK293 cells, reverse-transfected with plasmid vectors
The experiment in a line: YFP-halide influx assay for the CFTR-G551D mutation. The conditions noted are these: HEK293 cells expressing CFTR G551D and YFP reporter; forskolin 10.67 μM.
Excerpt: as §1, §2, §3

A further experiment has as its target T6, CFTR ΔF508 (Homo sapiens, UniProt P13569, DEL508-508).
T6 construct: bronchial epithelial cells isolated from CF patients homozygous for the CFTR ΔF508 mutation; host or cells: primary human bronchial epithelial cells (hAEC-CF) from CF patients homozygous for ΔF508, pre-treated with the corrector VX809 or GLPG2222
The experiment in a line: TECC assay in CFTR ΔF508, primary bronchial epithelial cells. The conditions noted are these: bronchial epithelial cells from CF patients homozygous for ΔF508, treated with 3 μM VX809 or 0.15 μM GLPG2222; increase in Isc after forskolin. The protocol:
The TECC (Transepithelial Clamp Circuit, EP-design) assay measures the functionality of the cystic fibrosis Transmembrane Conductance regulator (CFTR) by measuring the short circuit current (ISC) generated over the basolateral and apical membrane of lung epithelial cells. In TECC the transepithelial potential PD and transepithelial resistance (Rt) are measured in an open circuit and transformed to ISC using Ohm's law. 24 Wells can be measured simultaneously allowing a higher throughput compared to Ussing chambers.
For this purpose, bronchial epithelial cells isolated from CF patients homozygous for the CFTR ΔF508 mutation (hAEC-CF, McGill, UNC) are plated on type IV collagen-coated Transwell® supports (Costar). Human airway epithelia are generated by provision of an air liquid interface for 21 days to form well-differentiated polarized cultures that resemble in vivo pseudo-stratified ciliated epithelium (Fulcher, M. L., Gabriel, S., Burns, K. A., Yankaskas, J. R., Randell, S. H., 2005. Well-differentiated human airway epithelial cell cultures. Methods Mol. Med. 107, 183-206). […]
When subjected to this protocol, the following values were obtained. The difference between ΔIsc measured as DMSO (baseline), and the ΔIsc measured with the compound tested.

Another experiment deals with T7, CFTR-G178R (Homo sapiens, UniProt P13569, G178R).
T7 construct: expressed in transfected cells; HEK293 with plasmid vectors inferred from the G551D protocol, to which the assay is called similar
T7 sequence (P13569 whole entry G178R): as the sequence (P13569 whole entry R117H) above, with H117R, G178R counted along it
Kind of experiment: YFP-halide influx assay for the CFTR-G178R.
Excerpt: as §1, §2, §3, §4

By EC50 is commonly meant the concentration giving half of the maximal effect. High values mean lower potency in that assay, low ones higher potency in that assay.

T5 sequence (P13569 whole entry G551D): as the sequence (P13569 whole entry R117H) above, with H117R, G551D counted along it
T1 sequence (P13569 whole entry S549N): as the sequence (P13569 whole entry R117H) above, with H117R, S549N counted along it
T6 sequence (P13569 with tags, fused parts or gaps DEL508-508): as the sequence (P13569 with tags, fused parts or gaps DEL508-508) above
T2 sequence (P13569 whole entry G1349D): as the sequence (P13569 whole entry R117H) above, with H117R, G1349D counted along it

Consider `Nc1cc(S(=O)(=O)c2ccc(OC(F)(F)F)cc2)cnc1-c1nnc(CO)o1` [Compound 1, (5-{3-amino-5-[4-(trifluoromethoxy)benzene-1-sulfonyl]pyridin-2-yl}-1,3,4-oxadiazol-2-yl)methanol], for which the “% Activation” value at CFTR-S549N was 75.4%; at CFTR-G1349D, 72.8%; on CFTR-R117H, 88.7%; on CFTR ΔF508 mutant, 113.82%; at CFTR G551D mutant, 37.7%; on CFTR-G178R, 67.2%. For the same compound, the EC50 on CFTR-S549N is 275 nM; on CFTR-G1349D, 137 nM; on CFTR-R117H it was 184 nM; on CFTR ΔF508 mutant, 5.57 nM; on CFTR G551D mutant it was > 10000 nM; at CFTR ΔF508, 40 nM. Also, the EC50 on CFTR-G178R was determined as 196 nM.

For `Nc1cc(S(=O)(=O)c2ccc(OC(F)(F)F)cc2)cnc1-c1nnc(C(O)C(F)(F)F)o1` (stereo not drawn) [Compound 4, 1-(5-{3-amino-5-[4-(trifluoromethoxy)benzene-1-sulfonyl]pyridin-2-yl}-1,3,4-oxadiazol-2-yl)-2,2,2-trifluoroethan-1-ol], the figures for the “% Activation” value on CFTR ΔF508 mutant and on CFTR G551D mutant were 103.69% and 34.3%, respectively. The EC50 was 1.8 nM on CFTR ΔF508 mutant, > 6770 nM at CFTR G551D mutant and 6 nM at CFTR ΔF508.

These data come from US10138227B2, “Heteroaryl substituted pyridines and methods of use” (AbbVie S.à.r.l., priority 2016, dated 2018).
